# Experiments:
# Type in all cases: biochemical
# Conditions in all cases: kinase assay by one of methods A, B or C
# [1] = target: LCK (Homo sapiens, UniProt P06239); test: Inhibition of a panel of kinases: LCK
# Procedure: (§1) Btk kinase activity is determined using a time-resolved fluorescence resonance energy transfer (TR-FRET) methodology. Measurements are performed in a reaction volume of 50 μL using 96-well assay plates. Kinase enzyme, inhibitor, ATP (at the Km for the kinase), and 1 μM peptide substrate (Biotin-AVLESEEELYSSARQ-NH2) are incubated in a reaction buffer composed of 20 mM Tris, 50 mM NaCl, MgCl2 (5-25 mM depending on the kinase), MnCl2 (0-10 mM), 1 mM DTT, 0.1 mM EDTA, 0.01% bovine serum albumin, 0.005% Tween-20, and 10% DMSO at pH 7.4 for one hour. The reaction is quenched by the addition of 1.2 equivalents of EDTA (relative to divalent cation) in 25 μL of 1× Lance buffer (Perkin-Elmer). Streptavidin-APC (Perkin-Elmer) and Eu-labeled p-Tyr100 antibody (Perkin-Elmer) in 1× Lance buffer are added in a 25 μL volume to give final concentrations of 100 nM and 2.5 nM, respectively, and the mixture is allowed to incubate for one hour. The TR-FRET signal is measured on a multimode plate reader with an excitation wavelength (λEx) of 330 nm and detection wavelengths (λEm) of 615 and 665 nm. Activity is determined by the ratio of the fluorescence at 665 nm to that at 615 nm. For each compound, enzyme activity is measured at various concentrations of compound. Negative control reactions are performed in the absence of inhibitor in replicates of six, and two no-enzyme controls are used to determine baseline fluorescence levels. Inhibition constants, Ki(app), ware obtained using the program BatchKi (Kuzmic et al. (2000), Anal. Biochem. 286:45-50). IC50s are obtained according to the equation: IC50={Ki(app)/(1+[ATP]/Km^ATP)}+[E]total/2;
# (§2) For all kinases, [ATP]=Km^ATP, [Btk]total=0.5 nM and [Lck]total=6 nM.
# (§3) Kinase activity is measured in vitro using electrophoretic mobility shift assay. The kinase reactions are assembled in a total volume of 25 μL in 384 well plates. The reactions comprise: BTK enzyme (1 nM, N-terminal His6-tagged, recombinant, full-length, human BTK purified from baculovirus Sf21 insect cell system), inhibitor, ATP ([…] the apparent Km for the kinase), fluorescently labeled peptide substrate (1 μM, FAM-GEEPLYWSFPAKKK-NH2) in a reaction buffer composed of 100 mM HEPES, pH7.5, 5 mM MgCl2 1 mM DTT, 0.1% bovine serum albumin, 0.01% Triton X-100, and 1% DMSO. The reaction is incubated for one hour and is quenched by the addition of 45 μL of termination buffer (100 mM HEPES, pH7.5, 0.01% Triton X-100, 30 mM EDTA). The terminated reactions are analyzed using 12 channel LabChip® 3000 microfluidic detection instrument (Caliper Life Sciences). The enzymatic phosphorylation of the peptide results in a change in net charge, enabling electrophoretic separation of product from substrate peptide. As substrate and product peptides are separated, two peaks of fluorescence are observed. Change in the relative fluorescence intensity of the substrate and product peaks is the parameter measured, reflecting enzyme activity. In the presence of an inhibitor, the ratio between product and substrate is altered: the signal of the product decreases, while the signal of the substrate increases.
# (§4) Activity in each sample is determined as the product to sum ratio (PSR):P/(S+P), where P is the peak height of the product peptide and S is the peak height of the substrate peptide. For each compound, enzyme activity is measured at various concentrations (12 concentrations of compound spaced by 3× dilution intervals). Negative control samples (0%-inhibition in the absence of inhibitor) and positive control samples (100%-inhibition, in the presence of 20 mM EDTA) are assembled in replicates of four and are used to calculate %-inhibition values for each inhibitor at each concentration. Percent inhibition (Pinh) is determined using following equation: […]
# [2] = target: EGFR (Homo sapiens, UniProt P00533); test: Inhibition of a panel of kinases: EGFR
# Chain of EGFR (P00533 25-1210, species assumed): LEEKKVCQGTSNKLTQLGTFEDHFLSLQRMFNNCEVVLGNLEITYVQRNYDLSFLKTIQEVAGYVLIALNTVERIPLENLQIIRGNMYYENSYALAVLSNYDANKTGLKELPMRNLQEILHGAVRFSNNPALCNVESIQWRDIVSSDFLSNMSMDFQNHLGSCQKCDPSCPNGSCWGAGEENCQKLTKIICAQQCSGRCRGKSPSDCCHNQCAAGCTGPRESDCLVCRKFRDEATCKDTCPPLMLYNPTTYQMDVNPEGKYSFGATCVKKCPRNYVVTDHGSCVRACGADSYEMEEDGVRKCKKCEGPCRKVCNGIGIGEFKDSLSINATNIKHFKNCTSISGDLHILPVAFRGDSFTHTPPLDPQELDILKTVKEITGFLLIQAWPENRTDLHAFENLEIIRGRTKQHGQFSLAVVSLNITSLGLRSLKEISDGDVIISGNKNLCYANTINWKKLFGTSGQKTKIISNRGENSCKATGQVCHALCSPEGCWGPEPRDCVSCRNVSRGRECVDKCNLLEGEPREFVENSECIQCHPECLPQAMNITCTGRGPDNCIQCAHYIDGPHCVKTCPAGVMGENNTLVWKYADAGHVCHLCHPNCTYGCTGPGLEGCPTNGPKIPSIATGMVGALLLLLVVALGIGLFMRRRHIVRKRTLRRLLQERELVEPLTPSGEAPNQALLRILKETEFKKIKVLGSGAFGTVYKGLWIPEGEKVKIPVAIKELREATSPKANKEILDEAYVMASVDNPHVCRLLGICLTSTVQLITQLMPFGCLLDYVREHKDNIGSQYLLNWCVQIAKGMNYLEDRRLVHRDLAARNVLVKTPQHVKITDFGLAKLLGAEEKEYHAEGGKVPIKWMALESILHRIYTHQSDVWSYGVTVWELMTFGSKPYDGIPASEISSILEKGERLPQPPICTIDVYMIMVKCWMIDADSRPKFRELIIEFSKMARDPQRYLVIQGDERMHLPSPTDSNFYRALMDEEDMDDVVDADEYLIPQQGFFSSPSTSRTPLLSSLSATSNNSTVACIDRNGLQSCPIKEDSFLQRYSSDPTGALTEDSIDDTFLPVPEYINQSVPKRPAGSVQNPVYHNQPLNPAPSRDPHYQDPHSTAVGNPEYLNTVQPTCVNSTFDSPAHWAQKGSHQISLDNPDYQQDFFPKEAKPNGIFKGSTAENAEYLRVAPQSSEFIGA
# Procedure: as §1, §2, §3, §4
# [3] = target: T1, BTK (Homo sapiens, UniProt Q06187); test: Btk in vitro inhibitory activity / inhibition of a panel of kinases (TR-FRET, mobility shift or radiometric filter binding)
# T1 construct: purified from insect cells as a full-length construct containing a N-terminal 6×-His tag; His6 (N); made in house; host or cells: insect cells (baculovirus, Sf21)
# T1 sequence (Q06187 whole entry): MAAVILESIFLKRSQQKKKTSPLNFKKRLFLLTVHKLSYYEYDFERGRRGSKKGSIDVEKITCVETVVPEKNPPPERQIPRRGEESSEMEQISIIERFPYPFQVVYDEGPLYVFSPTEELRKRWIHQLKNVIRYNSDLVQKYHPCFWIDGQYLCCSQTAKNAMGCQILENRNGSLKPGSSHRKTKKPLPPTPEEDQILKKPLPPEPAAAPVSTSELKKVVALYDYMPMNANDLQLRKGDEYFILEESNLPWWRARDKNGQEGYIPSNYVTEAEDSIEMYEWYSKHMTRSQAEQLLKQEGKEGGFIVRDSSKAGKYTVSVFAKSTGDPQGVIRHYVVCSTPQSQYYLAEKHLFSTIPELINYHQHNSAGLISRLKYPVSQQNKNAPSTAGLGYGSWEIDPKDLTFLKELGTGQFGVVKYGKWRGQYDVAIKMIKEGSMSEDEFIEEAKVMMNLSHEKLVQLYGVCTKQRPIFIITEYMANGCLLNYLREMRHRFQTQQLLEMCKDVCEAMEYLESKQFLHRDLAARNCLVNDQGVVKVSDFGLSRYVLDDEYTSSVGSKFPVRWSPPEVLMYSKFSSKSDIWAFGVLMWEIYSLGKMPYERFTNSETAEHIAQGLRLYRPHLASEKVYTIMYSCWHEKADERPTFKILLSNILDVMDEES
# Procedure: as §1, §2, §3, §4
# Chain of LCK (P06239 whole entry, species assumed): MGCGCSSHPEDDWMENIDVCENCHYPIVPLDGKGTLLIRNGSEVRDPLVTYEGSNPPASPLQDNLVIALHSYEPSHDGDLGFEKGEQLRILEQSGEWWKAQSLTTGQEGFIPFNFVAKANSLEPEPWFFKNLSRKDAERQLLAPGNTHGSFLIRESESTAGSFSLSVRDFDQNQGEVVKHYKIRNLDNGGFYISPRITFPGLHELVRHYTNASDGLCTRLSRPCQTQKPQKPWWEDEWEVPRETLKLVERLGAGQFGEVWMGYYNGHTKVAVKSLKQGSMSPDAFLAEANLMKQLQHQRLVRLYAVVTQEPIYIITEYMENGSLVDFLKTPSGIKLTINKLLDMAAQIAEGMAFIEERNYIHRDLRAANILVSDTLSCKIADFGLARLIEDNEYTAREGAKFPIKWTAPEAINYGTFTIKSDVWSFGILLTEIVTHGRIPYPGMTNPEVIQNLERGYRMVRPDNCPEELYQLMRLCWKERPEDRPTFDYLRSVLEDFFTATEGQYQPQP
IC50 [1],IC50 [2],IC50 [3],SMILES
< 100 nM,1000 to 10000 nM,< 100 nM,"CN(C/C=C/C(=O)N1CC[C@@H](n2c(F)c(-c3ccc(Oc4ccccc4)cc3)c3c(N)ncnc32)C1)C1CC1 [Compound 5, (R,E)-1-(3-(4-amino-6-fluoro-5-(4-phenoxyphenyl)-7H-pyrrolo[2,3-d]pyrimidin-7-yl)pyrrolidin-1-yl)-4-(cyclopropyl(methyl)amino)but-2-en-1-one]"
< 100 nM,1000 to 10000 nM,< 100 nM,"CN(C/C=C/C(=O)N1CC[C@@H](n2c(Cl)c(-c3ccc(Oc4ccccc4)cc3)c3c(N)ncnc32)C1)C1CC1 [Compound 8, (R,E)-1-(3-(4-amino-6-chloro-5-(4-phenoxyphenyl)-7H-pyrrolo[2,3-d]pyrimidin-7-yl)pyrrolidin-1-yl)-4-(cyclopropyl(methyl)amino)but-2-en-1-one]"
< 100 nM,1000 to 10000 nM,< 100 nM,"Cc1c(-c2ccc(Oc3ccccc3)cc2)c2c(N)ncnc2n1[C@@H]1CCN(C(=O)/C=C/CN(C)C2CC2)C1 [Compound 12, (R,E)-1-(3-(4-amino-6-methyl-5-(4-phenoxyphenyl)-7H-pyrrolo[2,3-d]pyrimidin-7-yl)pyrrolidin-1-yl)-4-(cyclopropyl(methyl)amino)but-2-en-1-one]"
< 100 nM,1000 to 10000 nM,< 100 nM,"CN(C)C/C=C/C(=O)N1CC[C@@H](n2c(F)c(-c3ccc(Oc4ccccc4)cc3)c3c(N)ncnc32)C1 [Compound 13, (R,E)-1-(3-(4-amino-6-fluoro-5-(4-phenoxyphenyl)-7H-pyrrolo[2,3-d]pyrimidin-7-yl)pyrrolidin-1-yl)-4-(dimethylamino)but-2-en-1-one]"
< 100 nM,1000 to 10000 nM,< 100 nM,"CN(C)C/C=C/C(=O)N1CC[C@@H](n2c(Cl)c(-c3ccc(Oc4ccccc4)cc3)c3c(N)ncnc32)C1 [Compound 14, (R,E)-1-(3-(4-amino-6-chloro-5-(4-phenoxyphenyl)-7H-pyrrolo[2,3-d]pyrimidin-7-yl)pyrrolidin-1-yl)-4-(dimethylamino)but-2-en-1-one]"
< 100 nM,1000 to 10000 nM,< 100 nM,"Cc1c(-c2ccc(Oc3ccccc3)cc2)c2c(N)ncnc2n1[C@@H]1CCN(C(=O)/C=C/CN(C)C)C1 [Compound 15, (R,E)-1-(3-(4-amino-6-methyl-5-(4-phenoxyphenyl)-7H-pyrrolo[2,3-d]pyrimidin-7-yl)pyrrolidin-1-yl)-4-(dimethylamino)but-2-en-1-one]"
1000 to 10000 nM,1000 to 10000 nM,< 100 nM,"CN(C(=O)/C=C/CN(C)C1CC1)c1cccc(-n2c(Cl)c(-c3ccc(Cl)cc3)c3c(N)ncnc32)c1 [Compound 23, (E)-N-(3-(4-amino-6-chloro-5-(4-chlorophenyl)-7H-pyrrolo[2,3-d]pyrimidin-7-yl)phenyl)-4-(cyclopropyl(methyl)amino)-N-methylbut-2-enamide]"
1000 to 10000 nM,1000 to 10000 nM,< 100 nM,"COc1cc(-c2c(Cl)n(-c3cccc(N(C)C(=O)/C=C/CN(C)C4CC4)c3)c3ncnc(N)c23)ccc1C [Compound 36, (E)-N-(3-(4-amino-6-chloro-5-(3-methoxy-4-methylphenyl)-7H-pyrrolo[2,3-d]pyrimidin-7-yl)phenyl)-4-(cyclopropyl(methyl)amino)-N-methylbut-2-enamide]"
1000 to 10000 nM,,< 100 nM,"CN(C/C=C/C(=O)N1CC[C@@H](n2c(Cl)c(-c3ccc(Cl)cc3)c3c(N)ncnc32)C1)C1CC1 [Compound 38, (R,E)-1-(3-(4-amino-6-chloro-5-(4-chlorophenyl)-7H-pyrrolo[2,3-d]pyrimidin-7-yl)pyrrolidin-1-yl)-4-(cyclopropyl(methyl)amino)but-2-en-1-one]"
100 to 1000 nM,< 100 nM,< 100 nM,"C=CC(=O)N1CC[C@@H](n2c(Cl)c(-c3ccc(Cl)cc3)c3c(N)ncnc32)C1 [Compound 39, (R)-1-(3-(4-amino-6-chloro-5-(4-chlorophenyl)-7H-pyrrolo[2,3-d]pyrimidin-7-yl)pyrrolidin-1-yl)prop-2-en-1-one]"
100 to 1000 nM,100 to 1000 nM,< 100 nM,"CN(C)C/C=C/C(=O)N1CC[C@@H](n2c(Cl)c(-c3ccc(Cl)cc3)c3c(N)ncnc32)C1 [Compound 40, (R,E)-1-(3-(4-amino-6-chloro-5-(4-chlorophenyl)-7H-pyrrolo[2,3-d]pyrimidin-7-yl)pyrrolidin-1-yl)-4-(dimethylamino)but-2-en-1-one]"
100 to 1000 nM,< 100 nM,< 100 nM,"C=CC(=O)N1CC[C@@H](n2c(F)c(-c3ccc(Cl)cc3)c3c(N)ncnc32)C1 [Compound 42, (R)-1-(3-(4-amino-5-(4-chlorophenyl)-6-fluoro-7H-pyrrolo[2,3-d]pyrimidin-7-yl)pyrrolidin-1-yl)prop-2-en-1-one]"
100 to 1000 nM,< 100 nM,< 100 nM,"C=CC(=O)N1CC[C@@H](n2c(C)c(-c3ccc(Cl)cc3)c3c(N)ncnc32)C1 [Compound 44, (R)-1-(3-(4-amino-5-(4-chlorophenyl)-6-methyl-7H-pyrrolo[2,3-d]pyrimidin-7-yl)pyrrolidin-1-yl)prop-2-en-1-one]"
100 to 1000 nM,< 100 nM,< 100 nM,"C=CC(=O)N1CC[C@@H](n2c(OC)c(-c3ccc(Cl)cc3)c3c(N)ncnc32)C1 [Compound 46, (R)-1-(3-(4-amino-5-(4-chlorophenyl)-6-methoxy-7H-pyrrolo[2,3-d]pyrimidin-7-yl)pyrrolidin-1-yl)prop-2-en-1-one]"
,,< 100 nM,"Cc1c(-c2ccc(Oc3ccccc3)cc2)c2c(N)ncnc2n1[C@@H]1CCN(C(=O)/C=C/CN(C)[C@@H]2CCOC2)C1 [Compound 130, (E)-1-((R)-3-(4-amino-6-methyl-5-(4-phenoxyphenyl)-7H-pyrrolo[2,3-d]pyrimidin-7-yl)pyrrolidin-1-yl)-4-(methyl((R)-tetrahydrofuran-3-yl)amino)but-2-en-1-one]"
,,< 100 nM,"CN(C/C=C/C(=O)N1CC[C@@H](n2c(N)c(-c3ccc(Oc4ccccc4)cc3)c3c(N)ncnc32)C1)C1CC1 [Compound 162, (R,E)-4-(cyclopropyl(methyl)amino)-1-(3-(4,6-diamino-5-(4-phenoxyphenyl)-7H-pyrrolo[2,3-d]pyrimidin-7-yl)pyrrolidin-1-yl)but-2-en-1-one]"

# From patent publication US9540385B2, “Pyrrolopyrimidine compounds as kinase inhibitors” (Pharmacyclics LLC, priority 2012, dated 2017)
